Marks after values point to notes of the source that are not given here.
System: full thickness skin
Assay: Whole genome array of skin gene expression after topical DBP (time course)
Type: in vivo, C57BL/6J mice
Method: Mice: C57BL/6J female mice obtained from The Jackson Laboratory were used between 8 and 12 weeks of age.
Treatment: Mice were untreated or treated topically on the dorsal side of each ear with […] of dibutylphthalate (DBP). At the designated time points after treatment, the animals were euthanized and the ears washed with 70% isopropanol. Full thickness skin was obtained from the dorsal side of both ears and placed immediately in liquid nitrogen. The time between euthanasia and placement of both skin samples in liquid nitrogen was less than 1 minute. Each sample for RNA extraction contained two dorsal ear skin samples obtained from a single mouse both of whose ears received the same treatment.
RNA Extraction: While in liquid nitrogen, the skin was pulverized with a motorized mortar and pestle (CryoGrinder), transferred by inversion of the mortar directly into 1.5 ml cryogenic vials (Nalgene) and stored in liquid nitrogen until RNA extraction. Total RNA from both ears was extracted by homogenization (Pro200) in TRIzol Reagent (Invitrogen) with 7.5 μg of RNase-free glycogen added to the mixture, according to the manufacturer's directions. The RNA was purified on a solid phase RNeasy MinElute Cleanup column (Qiagen) and eluted with 17 μL of RNase-free water. The samples were stored at −20° C. until use.
Quantification of RNA: RNA yields were quantified by UV absorption using a NanoDrop NG-1000 spectrophotometer, where 1 AU 260 equals 40 μg RNA/ml. Purity was estimated by the 260 and 280 nm absorbance ratio; values between 1.7 and 2.1 were considered acceptable.
Assessment of RNA Quality: The quality of sample RNA was assessed using a RNA 6000 LABCHIP Kit on an Agilent 2100 Bioanalyzer. The Bioanalyzer determines the integrity/purity of the RNA samples and permits the screening of total and mRNA sample degradation and ribosomal RNA contamination. An RNA 6000 ladder was also loaded on a specified well and used as a reference for data analysis and a built-in quality control measure. The quality and integrity of the RNA was determined through visual inspection of each electropherogram. In general, only samples with a RIN (RNA integrity number) of 7 or greater, as determined by the Bioanalyzer, were used for gene arrays. This quality control analysis was repeated following the labeling procedure to ensure that the probes were efficiently labeled and had the correct size before hybridization to the chips. All samples that were run on genome wide arrays were obtained as independent duplicates from two individual mice.
Microarray Data Interpretation: Gene expression was compared between untreated and treated total RNA samples. “Transition” data, which represent the change in expression level for a given gene, are presented as a “weighted difference.” Changes in gene expression level were considered to be significant when the adjusted p values were less than […]. The “gene expression signature” arbitrarily includes only those genes that were transcribed with a weighted increase of 2.0 or greater, which was sustained over the subsequent time points tested.
The weighted difference is a metric that takes into account both the variability between different time-points and the variability between replicates at the same time-point. The calculations are performed for each time-point transition, i.e., 30 minutes vs. 1 hour, 1 hour vs. 2 hours, etc. There are two steps to the calculation: the calculation of a modified Euclidean difference between the two time-points, and the calculation of the Euclidean difference between the replicates within each time-point. The first measure is an unweighted difference, while the final metric given in the spreadsheet “weights” this difference by taking into account the second measure.
In a Euclidean difference calculation, each data point is considered as a vector in a multi-dimensional space, and the actual straight-line distance between the data points is calculated. […]

## CCCCOC(=O)c1ccccc1C(=O)OCCCC [DBP, dibutylphthalate]
15 min
  % Shared (DBP-induced genes also TLR-induced): 64%
  DBP Unique genes, number: 12
  TLR-Induced among DBP-induced genes, number: 21^
15 min, early response genes
  DBP-Induced genes (≧2x Increased Expression), number: 33*
15 min to 30 min Transition
  Acot5 Change in Gene Expression (Weighted Difference): 1.225
  Akr1c18 Change in Gene Expression (Weighted Difference): −0.6119
  Atp2c2 Change in Gene Expression (Weighted Difference): 0.1754
  Btg2 Change in Gene Expression (Weighted Difference): 5.994
  Ccr4 Change in Gene Expression (Weighted Difference): −0.287
  Cdh10 Change in Gene Expression (Weighted Difference): 0.1979
  Cish Change in Gene Expression (Weighted Difference): 1.725
  Cox17 Change in Gene Expression (Weighted Difference): −0.6572
  Cysltr1 Change in Gene Expression (Weighted Difference): −1.813
  Egr1 Change in Gene Expression (Weighted Difference): 4.967
  Egr2 Change in Gene Expression (Weighted Difference): 1.229
  Frk Change in Gene Expression (Weighted Difference): −5.361
  Gbp8 Change in Gene Expression (Weighted Difference): 0.5698
  Gem Change in Gene Expression (Weighted Difference): 2.697
  Gimap7 Change in Gene Expression (Weighted Difference): −0.2249
  Ier3 Change in Gene Expression (Weighted Difference): 12.73
  Il10ra Change in Gene Expression (Weighted Difference): 2.226
  Jun Change in Gene Expression (Weighted Difference): 1.717
  Junb Change in Gene Expression (Weighted Difference): 3.924
  LOC100046066 Change in Gene Expression (Weighted Difference): −2.104
  Madcam1 Change in Gene Expression (Weighted Difference): 0.2824
  Med17 Change in Gene Expression (Weighted Difference): −0.2295
  Mkks Change in Gene Expression (Weighted Difference): −2.533
  Mndal Change in Gene Expression (Weighted Difference): 1.805
  Myc Change in Gene Expression (Weighted Difference): 2.987
  N6amt2 Change in Gene Expression (Weighted Difference): −0.7998
  Nr4a1 Change in Gene Expression (Weighted Difference): 5.842
  P2ry1 Change in Gene Expression (Weighted Difference): −2.116
  Prf1 Change in Gene Expression (Weighted Difference): −0.05377
  Sik1 Change in Gene Expression (Weighted Difference): 2.597
  Slc39a8 Change in Gene Expression (Weighted Difference): 25.27
  Tmed3 Change in Gene Expression (Weighted Difference): −0.4993
  Zfp36 Change in Gene Expression (Weighted Difference): 10.7
30 min
  % Shared (DBP-induced genes also TLR-induced): 64%
  DBP Unique genes, number: 107
  DBP-Induced genes (≧2x Increased Expression), number: 297
  TLR-Induced among DBP-induced genes, number: 190^#
30 min to 1 hr Transition
  Acot5 Change in Gene Expression (Weighted Difference): 1.878
  Akr1c18 Change in Gene Expression (Weighted Difference): 1.114
  Atp2c2 Change in Gene Expression (Weighted Difference): −0.008704
  Btg2 Change in Gene Expression (Weighted Difference): 2.926
  Ccr4 Change in Gene Expression (Weighted Difference): 0.2055
  Cdh10 Change in Gene Expression (Weighted Difference): 0.2384
  Cish Change in Gene Expression (Weighted Difference): 1.825
  Cox17 Change in Gene Expression (Weighted Difference): −0.02512
  Cysltr1 Change in Gene Expression (Weighted Difference): 0.06681
  Egr1 Change in Gene Expression (Weighted Difference): 5.495
  Egr2 Change in Gene Expression (Weighted Difference): 2.326
  Frk Change in Gene Expression (Weighted Difference): 3.985
  Gbp8 Change in Gene Expression (Weighted Difference): 0.1048
  Gem Change in Gene Expression (Weighted Difference): 3.044
  Gimap7 Change in Gene Expression (Weighted Difference): −0.004049
  Ier3 Change in Gene Expression (Weighted Difference): 7.145
  Il10ra Change in Gene Expression (Weighted Difference): 0.6152
  Jun Change in Gene Expression (Weighted Difference): 0.7234
  Junb Change in Gene Expression (Weighted Difference): 2.771
  LOC100046066 Change in Gene Expression (Weighted Difference): 2.144
  Madcam1 Change in Gene Expression (Weighted Difference): 0.046
  Med17 Change in Gene Expression (Weighted Difference): 0.06201
  Mkks Change in Gene Expression (Weighted Difference): 0.2811
  Mndal Change in Gene Expression (Weighted Difference): 0.3272
  Myc Change in Gene Expression (Weighted Difference): 1.895
  N6amt2 Change in Gene Expression (Weighted Difference): 0.0833
  Nr4a1 Change in Gene Expression (Weighted Difference): 1.556
  P2ry1 Change in Gene Expression (Weighted Difference): 1.47
  Prf1 Change in Gene Expression (Weighted Difference): 0.5182
  Sik1 Change in Gene Expression (Weighted Difference): 0.7241
  Slc39a8 Change in Gene Expression (Weighted Difference): 2.304
  Tmed3 Change in Gene Expression (Weighted Difference): −0.1953
  Zfp36 Change in Gene Expression (Weighted Difference): 2.8
1 hr
  % Shared (DBP-induced genes also TLR-induced): 69%
  DBP Unique genes, number: 26
  DBP-Induced genes (≧2x Increased Expression), number: 83
  TLR-Induced among DBP-induced genes, number: 57^#
1 hr to 2 hr Transition
  Acot5 Change in Gene Expression (Weighted Difference): 12.15
  Akr1c18 Change in Gene Expression (Weighted Difference): −0.2471
  Atp2c2 Change in Gene Expression (Weighted Difference): 0.331
  Btg2 Change in Gene Expression (Weighted Difference): −0.01005
  Ccr4 Change in Gene Expression (Weighted Difference): −0.03096
  Cdh10 Change in Gene Expression (Weighted Difference): −0.1519
  Cish Change in Gene Expression (Weighted Difference): 0.9334
  Cox17 Change in Gene Expression (Weighted Difference): 0.1604
  Cysltr1 Change in Gene Expression (Weighted Difference): −1.794
  Egr1 Change in Gene Expression (Weighted Difference): −0.2127
  Egr2 Change in Gene Expression (Weighted Difference): −0.1057
  Frk Change in Gene Expression (Weighted Difference): −0.2672
  Gbp8 Change in Gene Expression (Weighted Difference): −1.039
  Gem Change in Gene Expression (Weighted Difference): 0.6484
  Gimap7 Change in Gene Expression (Weighted Difference): 0.1331
  Ier3 Change in Gene Expression (Weighted Difference): 0.7786
  Il10ra Change in Gene Expression (Weighted Difference): 0.1326
  Jun Change in Gene Expression (Weighted Difference): −0.001533
  Junb Change in Gene Expression (Weighted Difference): −0.0754
  LOC100046066 Change in Gene Expression (Weighted Difference): −0.8577
  Madcam1 Change in Gene Expression (Weighted Difference): −0.04597
  Med17 Change in Gene Expression (Weighted Difference): 0.1073
  Mkks Change in Gene Expression (Weighted Difference): −0.1657
  Mndal Change in Gene Expression (Weighted Difference): 0.5733
  Myc Change in Gene Expression (Weighted Difference): −0.01449
  N6amt2 Change in Gene Expression (Weighted Difference): −0.07791
  Nr4a1 Change in Gene Expression (Weighted Difference): −0.4734
  P2ry1 Change in Gene Expression (Weighted Difference): −0.5171
  Prf1 Change in Gene Expression (Weighted Difference): −0.3117
  Sik1 Change in Gene Expression (Weighted Difference): 0.007769
  Slc39a8 Change in Gene Expression (Weighted Difference): 1.188
  Tmed3 Change in Gene Expression (Weighted Difference): −0.2575
  Zfp36 Change in Gene Expression (Weighted Difference): 0.1025
2 hr
  % Shared (DBP-induced genes also TLR-induced): 63%
